Assay results taken from the supplement of paper PMC10307832.

How the values were obtained:
Experiment in all cases: relative viability (nuclei count vs DMSO), 5 days (fraction); higher = more cells survive
[1] = tested on: A-427
Procedure, shortened: (§1)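 For relative viability, nuclei counts in treated wells were divided by those in vehicle wells. Lung cancer cell lines had been pin-tool dosed in 1536-well plates the day after seeding and cultured for 5 days, then fixed and stained in one step (final 0.05% Triton X-100, 1% formaldehyde, 1 ug/ml Hoechst) and imaged at 4×. Doses were one drug alone or a fixed anchor-drug dose plus five library-drug doses (not always all listed) in √10 steps, and values are duplicate-plate medians.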

[2] = tested on: ABC-1
Procedure, shortened: as §1

[3] = tested on: COR-L23
Procedure, shortened: as §1

[4] = tested on: EMC-BAC-2
Procedure, shortened: as §1

[5] = tested on: HARA
Procedure, shortened: as §1

[6] = tested on: HOP-62
Procedure, shortened: as §1

[7] = tested on: LK-2
Procedure, shortened: as §1

[8] = tested on: LXF-289
Procedure, shortened: as §1

[9] = tested on: NCI-H1792
Procedure, shortened: as §1

[10] = tested on: NCI-H1793
Procedure, shortened: as §1

[11] = tested on: NCI-H1944
Procedure, shortened: as §1

[12] = tested on: NCI-H1993
Procedure, shortened: as §1

[13] = tested on: NCI-H2009
Procedure, shortened: as §1

[14] = tested on: NCI-H2170
Procedure, shortened: as §1

[15] = tested on: NCI-H2228
Procedure, shortened: as §1

[16] = tested on: NCI-H3122
Procedure, shortened: as §1

[17] = tested on: NCI-H727
Procedure, shortened: as §1

[18] = tested on: PC-3 [JPC-3]
Procedure, shortened: as §1

[19] = tested on: SK-LU-1
Procedure, shortened: as §1

[20] = tested on: SK-MES-1
Procedure, shortened: as §1

[21] = tested on: SW 1573
Procedure, shortened: as §1

[22] = tested on: SW 900
Procedure, shortened: as §1

`CC1(C)CCC(c2ccc(Cl)cc2)=C(CN2CCN(c3ccc(C(=O)NS(=O)(=O)c4ccc(N[C@H](CCN5CCOCC5)CSc5ccccc5)c(S(=O)(=O)C(F)(F)F)c4)cc3)CC2)C1` [Navitoclax] + CC(=O)c1c(C)c2cnc(Nc3ccc(N4CCNCC4)cn3)nc2n(C2CCCC2)c1=O [Palbociclib] (partner 0.5 µM) gave a relative viability ([1]; first compound 0.005 µM) of 0.502, a relative viability ([1]; first compound 0.01581 µM) of 0.512 and a relative viability ([1]; first compound 0.05 µM) of 0.516. For the same compound, the relative viability ([1]; first compound 0.1581 µM) was 0.514, the relative viability ([1]; first compound 0.5 µM) was 0.53 and the relative viability ([2]; first compound 0.005 µM) was 0.896. For the same compound, the relative viability ([2]; first compound 0.01581 µM) was 0.845, the relative viability ([2]; first compound 0.05 µM) was 0.691 and the relative viability ([2]; first compound 0.1581 µM) was 0.747. For the same compound, the relative viability ([2]; first compound 0.5 µM) was 0.639, the relative viability ([3]; first compound 0.005 µM) was 0.36 and the relative viability ([3]; first compound 0.01581 µM) was 0.309. It also gave a relative viability ([3]; first compound 0.05 µM) of 0.28, a relative viability ([3]; first compound 0.1581 µM) of 0.331 and a relative viability ([3]; first compound 0.5 µM) of 0.278. For the same compound, the relative viability ([4]; first compound 0.005 µM) was 0.522, the relative viability ([4]; first compound 0.01581 µM) was 0.533 and the relative viability ([4]; first compound 0.05 µM) was 0.532. The relative viability ([4]; first compound 0.1581 µM) was 0.5, the relative viability ([4]; first compound 0.5 µM) was 0.507 and the relative viability ([5]; first compound 0.005 µM) was 0.236. It also gave a relative viability ([5]; first compound 0.01581 µM) of 0.271, a relative viability ([5]; first compound 0.05 µM) of 0.243 and a relative viability ([5]; first compound 0.1581 µM) of 0.191. It also gave a relative viability ([5]; first compound 0.5 µM) of 0.216, a relative viability ([6]; first compound 0.005 µM) of 0.449 and a relative viability ([6]; first compound 0.01581 µM) of 0.442. For the same compound, the relative viability ([6]; first compound 0.05 µM) was 0.429, the relative viability ([6]; first compound 0.1581 µM) was 0.391 and the relative viability ([6]; first compound 0.5 µM) was 0.448. It also gave a relative viability ([7]; first compound 0.005 µM) of 0.588, a relative viability ([7]; first compound 0.01581 µM) of 0.925 and a relative viability ([7]; first compound 0.05 µM) of 0.661. For the same compound, the relative viability ([7]; first compound 0.1581 µM) was 0.502, the relative viability ([7]; first compound 0.5 µM) was 0.758 and the relative viability ([8]; first compound 0.005 µM) was 0.589. For the same compound, the relative viability ([8]; first compound 0.01581 µM) was 0.658, the relative viability ([8]; first compound 0.05 µM) was 0.547 and the relative viability ([8]; first compound 0.1581 µM) was 0.606. It also gave a relative viability ([8]; first compound 0.5 µM) of 0.627, a relative viability ([9]; first compound 0.005 µM) of 0.651 and a relative viability ([9]; first compound 0.01581 µM) of 0.661. The relative viability ([9]; first compound 0.05 µM) was 0.563, the relative viability ([9]; first compound 0.1581 µM) was 0.628 and the relative viability ([9]; first compound 0.5 µM) was 0.647. The relative viability ([10]; first compound 0.005 µM) was 0.312, the relative viability ([10]; first compound 0.01581 µM) was 0.281 and the relative viability ([10]; first compound 0.1581 µM) was 0.336. The relative viability ([10]; first compound 0.5 µM) was 0.295, the relative viability ([11]; first compound 0.005 µM) was 0.345 and the relative viability ([11]; first compound 0.01581 µM) was 0.364. The relative viability ([11]; first compound 0.1581 µM) was 0.3, the relative viability ([11]; first compound 0.5 µM) was 0.341 and the relative viability ([12]; first compound 0.005 µM) was 0.7. For the same compound, the relative viability ([12]; first compound 0.01581 µM) was 0.744, the relative viability ([12]; first compound 0.05 µM) was 0.593 and the relative viability ([12]; first compound 0.1581 µM) was 0.749. For the same compound, the relative viability ([12]; first compound 0.5 µM) was 0.653, the relative viability ([13]; first compound 0.005 µM) was 0.186 and the relative viability ([13]; first compound 0.01581 µM) was 0.302. It also gave a relative viability ([13]; first compound 0.05 µM) of 0.202, a relative viability ([13]; first compound 0.1581 µM) of 0.255 and a relative viability ([13]; first compound 0.5 µM) of 0.222. The relative viability ([14]; first compound 0.005 µM) was 0.391, the relative viability ([14]; first compound 0.01581 µM) was 0.382 and the relative viability ([14]; first compound 0.05 µM) was 0.409. For the same compound, the relative viability ([14]; first compound 0.1581 µM) was 0.394, the relative viability ([14]; first compound 0.5 µM) was 0.377 and the relative viability ([15]; first compound 0.005 µM) was 0.915. It also gave a relative viability ([15]; first compound 0.01581 µM) of 0.986, a relative viability ([15]; first compound 0.1581 µM) of 0.703 and a relative viability ([15]; first compound 0.5 µM) of 0.687. It also gave a relative viability ([16]; first compound 0.005 µM) of 0.206, a relative viability ([16]; first compound 0.01581 µM) of 0.164 and a relative viability ([16]; first compound 0.05 µM) of 0.225. The relative viability ([16]; first compound 0.1581 µM) was 0.177, the relative viability ([16]; first compound 0.5 µM) was 0.182 and the relative viability ([17]; first compound 0.005 µM) was 0.625. The relative viability ([17]; first compound 0.01581 µM) was 0.602, the relative viability ([17]; first compound 0.05 µM) was 0.67 and the relative viability ([17]; first compound 0.1581 µM) was 0.584. It also gave a relative viability ([17]; first compound 0.5 µM) of 0.527, a relative viability ([18]; first compound 0.005 µM) of 0.576 and a relative viability ([18]; first compound 0.01581 µM) of 0.575. It also gave a relative viability ([18]; first compound 0.05 µM) of 0.545, a relative viability ([18]; first compound 0.1581 µM) of 0.531 and a relative viability ([18]; first compound 0.5 µM) of 0.506. It also gave a relative viability ([19]; first compound 0.005 µM) of 0.396, a relative viability ([19]; first compound 0.01581 µM) of 0.508 and a relative viability ([19]; first compound 0.05 µM) of 0.337. It also gave a relative viability ([19]; first compound 0.1581 µM) of 0.384, a relative viability ([19]; first compound 0.5 µM) of 0.414 and a relative viability ([20]; first compound 0.005 µM) of 0.332. For the same compound, the relative viability ([20]; first compound 0.01581 µM) was 0.343, the relative viability ([20]; first compound 0.05 µM) was 0.336 and the relative viability ([20]; first compound 0.1581 µM) was 0.303. The relative viability ([20]; first compound 0.5 µM) was 0.385, the relative viability ([21]; first compound 0.005 µM) was 0.417 and the relative viability ([21]; first compound 0.01581 µM) was 0.41. It also gave a relative viability ([21]; first compound 0.05 µM) of 0.448, a relative viability ([21]; first compound 0.1581 µM) of 0.399 and a relative viability ([21]; first compound 0.5 µM) of 0.38. For the same compound, the relative viability ([22]; first compound 0.005 µM) was 0.565, the relative viability ([22]; first compound 0.01581 µM) was 0.651 and the relative viability ([22]; first compound 0.1581 µM) was 0.55. For the same compound, the relative viability ([22]; first compound 0.5 µM) was 0.518.
